The subject of assay [1] is Clostridium difficile Cytotoxic 1. Description: MIC vs. panel of anaerobes. The conditions noted are these: Clostridioides difficile. In kind it is cell-based.
In assay [2] the test system is Peptostreptococcus anaerobicus. The experiment in a line: MIC vs. panel of anaerobes. As to conditions: Peptostreptococcus anaerobicus; read-out: MIC. In kind it is cell-based.
A further assay deals with B. fragilis NCTC 9344. The experiment in a line: MIC/MBC broth microdilution, strain C. In kind it is cell-based, Bacteroides fragilis. As to conditions: Bacteroides fragilis, NCTC9344, 48 h; for MIC: 37° C., anaerobic; for MBC: 99.9% reduction in viable count after 48 h, read-out: MBC. Background: Dilution methods test growth across graded concentrations, often in twofold steps.

For assay [3], the system named is Clostridium perfringens NCTC 523. Description: microbe, parasite or virus in culture. In kind it is cell-based. As to conditions: NCTC523.
Assay [4] relates to B. fragilis MZ-R ATCC 11295. Description: MIC/MBC broth microdilution, strain D. The conditions noted are these: Bacteroides fragilis, ATCC11295, 48 h; for MBC: 99.9% reduction in viable count after 48 h. In kind it is cell-based.
The next assay relates to B. Fragilis ATCC 23745. The conditions noted are these: Bacteroides fragilis, ATCC23745, in Mus musculus, po, 48 h, read-out: Dose giving 1 log reduction, p.o., after infection and twice daily for 2 days; 1 log (90%) reduction of CFU/ml liver homogenate vs untreated; compound of Example.
For the next assay, the system named is B. fragilis NCTC 10581. The experiment in a line: MIC/MBC broth microdilution, strain A. In kind it is cell-based. The conditions noted are these: Bacteroides fragilis, NCTC10581, 48 h; for MIC: 37° C., anaerobic; for MBC: 99.9% reduction in viable count after 48 h.
Assay [5] has as its system Bacteroides melanogenicus NCTC 9336. The experiment in a line: MIC vs. panel of anaerobes. The conditions noted are these: NCTC9336; Bacteroides melanogenicus NCTC 9336; read-out: MIC. In kind it is cell-based.
In assay [6] the test system is Clostridium difficile NCIB 10666. The experiment in a line: MIC vs. panel of anaerobes. The conditions noted are these: Clostridioides difficile, NCIB10666. In kind it is cell-based.
Assay [7] relates to Fusobacterium necrophorum ATCC 11295. The experiment in a line: MIC vs. panel of anaerobes. It is filed as cell-based. As to conditions: ATCC11295.
The test system of assay [8] is Propionebecterium acnes NCTC 737. The experiment in a line: MIC vs. panel of anaerobes. In kind it is cell-based.
Another assay has as its system B. fragilis NCTC 9343. Description: MIC/MBC broth microdilution, strain B. The conditions noted are these: Bacteroides fragilis, NCTC9343, 48 h; for MIC: 37° C., anaerobic; for MBC: 99.9% reduction in viable count after 48 h. It is filed as cell-based.
The subject of assay [9] is Propionebacterium acnes NCTC 7337. The experiment in a line: MIC vs. panel of anaerobes. It is filed as cell-based.
A further assay has as its system B. fragilis WS-1. The experiment in a line: MIC/MBC broth microdilution, strain E. It is filed as cell-based, Bacteroides fragilis. The conditions noted are these: Bacteroides fragilis, WS1, 48 h; for MIC: 37° C., anaerobic; for MBC: 99.9% reduction in viable count after 48 h.
Assay [10] concerns Campylobacter fetus ss.jejuni ATCC 29428. The experiment in a line: MIC vs. panel of anaerobes. In kind it is cell-based. The conditions noted are these: ATCC29428.
Assay [11] deals with Clostridium perfringens NCTC 8237. Description: microbe, parasite or virus in culture. It is filed as cell-based. The conditions noted are these: NCTC8237.
[12] abbreviates: Fusobacterium necrophorum ATCC 11295, read-out: MIC.
Setting [13] is: Clostridium difficile NCIB 10666, read-out: MIC.

Each structure is given as a SMILES string. ≈ marks a conversion by molar mass, not a printed value. Like-named read-outs stand apart in the source and are kept apart here. A value given as a limit tells only on which side of the number the result lay.

Usually MBC stands for the smallest concentration meeting the test's criterion for killing. For the compound `[O-][N+]1=C(c2ccccc2)C2=NCCN2c2cc(F)c(F)cc21` [Example 2, 1,2-Dihydro-7,8-difluoro-4-phenylimidazo[1,2-a]quinoxaline 5-oxide], the MIC in assay [1] came out at 6.2 µg/mL (≈ 20.7 µM); in [2], 12.5 µg/mL (≈ 41.8 µM); with B. fragilis NCTC 9344 (read-out: MIC) it was 0.6 µg/mL (≈ 2 µM); in assay [3], 6.2 µg/mL (≈ 20.7 µM); in [4] it was 0.08 µg/mL (≈ 0.267 µM); in the assay on B. fragilis NCTC 10581 (read-out: MIC), 0.6 µg/mL (≈ 2 µM). Besides, the MIC in assay [5] is 6.2 µg/mL (≈ 20.7 µM); in assay [6], < 0.8 µg/mL; in assay [7] (setting [12]) it was 3.1 µg/mL (≈ 10.4 µM); in assay [8], 25 µg/mL (≈ 83.5 µM); in the assay with B. fragilis NCTC 9343 (read-out: MIC), 0.15 µg/mL (≈ 0.501 µM); in [9], 25 µg/mL (≈ 83.5 µM). Besides, the MIC is 0.6 µg/mL (≈ 2 µM) in the assay on B. fragilis WS-1 (read-out: MIC), 12.5 µg/mL (≈ 41.8 µM) in [10] and 6.2 µg/mL (≈ 20.7 µM) in [11]. Further, the MBC came to 0.6 µg/mL (≈ 2 µM) in the assay with B. fragilis NCTC 9344; 0.15 µg/mL (≈ 0.501 µM) in assay [4] (strain D (MZ-R)); 0.6 µg/mL (≈ 2 µM) against B. fragilis NCTC 10581; 0.15 µg/mL (≈ 0.501 µM) in the assay on B. fragilis NCTC 9343; 0.6 µg/mL (≈ 2 µM) with B. fragilis WS-1. Further, in the assay with B. Fragilis ATCC 23745, the ED (1 log reduction) is < 40 mg/kg.
On to `[O-][N+]1=C(c2ccccc2)C2=NCCN2c2cc(N3CCN(c4ccccc4)CC3)ccc21` [Example 8, 1,2-Dihydro-4-phenyl-8-(4-phenylpiperazinyl)imidazo[1,2-a]quinoxaline 5-oxide], for which the MIC was < 0.8 µg/mL in assay [1]; > 100 µg/mL in assay [2]; < 0.8 µg/mL in the assay on B. fragilis NCTC 9344 (48 h); 1.5 µg/mL (≈ 3.54 µM) in [3]; < 0.8 µg/mL in assay [4]; 1.5 µg/mL (≈ 3.54 µM) with B. fragilis NCTC 10581 (read-out: MIC). The MIC in assay [5] is > 100 µg/mL; in assay [6] (setting [13]), < 0.8 µg/mL; in assay [7] (setting [12]) it was 3.1 µg/mL (≈ 7.32 µM); in assay [8] it was > 100 µg/mL; in the assay on B. fragilis NCTC 9343 (read-out: MIC) it was 1.5 µg/mL (≈ 3.54 µM); in [9], > 100 µg/mL. Moreover, the MIC was 3.1 µg/mL (≈ 7.32 µM) with B. fragilis WS-1 (48 h), > 100 µg/mL in [10] and 3.1 µg/mL (≈ 7.32 µM) in assay [11].
As for `CN1CCN(c2ccc3c(n2)N2CCN=C2C(c2ccccc2)=[N+]3[O-])CC1` [Example 9, 1,2-Dihydro-8-(4-methylpiperazinyl)-4-phenylimidazo[1,2-a]pyrido[3,2-e]pyrazine 5-oxide], the minimal bactericidal concentration (MBC) (with B. fragilis NCTC 9344; in [4] (strain D (MZ-R)); in the assay on B. fragilis NCTC 10581; in the assay with B. fragilis NCTC 9343) was 0.8 µg/mL (≈ 2.21 µM) throughout. Further, the MIC (against B. fragilis NCTC 9344 (48 h); in assay [4]; against B. fragilis NCTC 10581 (48 h); in the assay with B. fragilis NCTC 9343 (48 h)) was 0.8 µg/mL (≈ 2.21 µM) each time. Also, the ED (1 log reduction) in the assay with B. Fragilis ATCC 23745 worked out at 4.48 mg/kg.
For `[O-][N+]1=C(c2ccccc2)C2=NCCN2c2cc(N3CCN(Cc4ccccc4)CC3)ccc21` [Example 6, 1,2-Dihydro-4-phenyl-8-(4-phenylmethylpiperazinyl)imidazo[1,2-a]quinoxaline5-oxide], the MIC was found to be 3.1 µg/mL (≈ 7.08 µM) in [1]; 100 µg/mL (≈ 229 µM) in [2]; 12.5 µg/mL (≈ 28.6 µM) against B. fragilis NCTC 9344 (48 h); 12.5 µg/mL (≈ 28.6 µM) in assay [3]; 25 µg/mL (≈ 57.1 µM) in assay [4] (strain D (MZ-R), 48 h, 37° C., anaerobic, read-out: MIC); 25 µg/mL (≈ 57.1 µM) in the assay on B. fragilis NCTC 10581 (read-out: MIC). In addition, the MIC was 50 µg/mL (≈ 114 µM) in assay [5]; < 0.8 µg/mL in assay [6] (setting [13]); 12.5 µg/mL (≈ 28.6 µM) in assay [7] (Fusobacterium necrophorum); 50 µg/mL (≈ 114 µM) in assay [8]; 50 µg/mL (≈ 114 µM) with B. fragilis NCTC 9343 (read-out: MIC); 50 µg/mL (≈ 114 µM) in [9]. Moreover, the MIC is 25 µg/mL (≈ 57.1 µM) in the assay with B. fragilis WS-1 (read-out: MIC), 100 µg/mL (≈ 229 µM) in [10] and 12.5 µg/mL (≈ 28.6 µM) in assay [11]. Further, the MBC amounted to 25 µg/mL (≈ 57.1 µM) in the assay on B. fragilis NCTC 9344; 25 µg/mL (≈ 57.1 µM) in assay [4] (strain D (MZ-R)); 25 µg/mL (≈ 57.1 µM) with B. fragilis NCTC 10581; 50 µg/mL (≈ 114 µM) with B. fragilis NCTC 9343; 25 µg/mL (≈ 57.1 µM) against B. fragilis WS-1. Besides, in the assay on B. Fragilis ATCC 23745, the ED (1 log reduction) came to 6.27 mg/kg.

For the origin of these results see patent US4696928A, “Substituted dihydroimidazo[1,2-a]quinoxalines” (G. D. Searle & Co., priority 1985, dated 1987).
